Assay results taken from patent US20250223296A1, “HYDROXYMETHYL AZABICYCLO[2.2.1]HEPTANES AND MEDICAL USES THEREOF” (ATROGI AB, priority 2022, published 2025).

Experiments:
L6-myotubes [1] = assay: Measurement of intracellular cAMP levels in differentiated L6 cells; type: cell-based; conditions: Rattus norvegicus, L6, 0.25 h, compound at 10 µM (1×10^−5 M), 15 min, vs isoproterenol at 10 µM, read-out: Biological example 2: intracellular cAMP levels, activity compared to that of isoproterenol
Procedure: L6-myoblasts were grown in Dulbecco's Modified Eagle's Medium (DMEM) containing 1 g/L glucose supplemented with 10% fetal bovine serum, 2 mM L-Glutamine, 50 U/ml penicillin, 50 μg/mL streptomycin and 10 mM HEPES. Cells were plated at 1×10^5 cells per mL in 24-well plates. After reaching 90% confluence the cells were grown in medium containing 2% FBS for 7 days where upon cells differentiated into myotubes. Differentiated cells were serum-starved overnight and stimulated with an agonist, final concentration 1×10^−5 M, for 15 min in stimulation buffer (HBSS supplemented with 1% BSA, 5 mM HEPES and 1 mM IBMX, pH 7.4). The medium was aspirated and 100 μL of 95% EtOH was added to each well of the 24-well plate and cells were kept at −20° C. overnight. The EtOH was allowed to evaporate and 500 μL of lysis buffer (1% BSA, 5 mM HEPES and 0.3% Tween-20, pH 7.4) was added to each well. The plate was kept at −80° C. for 30 min and then at −20° C. until the day of detection when the samples were thawed. Intracellular cAMP levels were detected using an alpha screen CAMP kit (6760635D from Perkin Elmer). The activity for each compound is compared to that of isoproterenol.

L6-myotubes [2] = assay: Glucose uptake (3H-2-deoxyglucose) in differentiated L6-myotubes; type: cell-based; conditions: compound at 10 µM (1×10^−5 M) vs isoproterenol at 10 µM, read-out: Biological example 1: glucose uptake, activity compared to that of isoproterenol
Procedure: L6-myoblasts were grown in Dulbecco's Modified Eagle's Medium (DMEM) containing 1 g/L glucose supplemented with 10% fetal bovine serum, 2 mM L-Glutamine, 50 U/ml penicillin, 50 μg/mL streptomycin and 10 mM HEPES. Cells were plated at 1×10^5 cells per mL in 24-well plates. After reaching 90% confluence the cells were grown in medium containing 2% FBS for 7 days where upon cells differentiated into myotubes. Differentiated L6-myotubes were serum-starved overnight in medium containing 0.5% fatty-acid free BSA and stimulated with an agonist, with a final concentration of 1×10^−5 M. After 1 h 40 min the cells were washed with warm glucose free medium or PBS twice and another portion of agonist was added to the glucose free medium. After 20 min the cells were exposed to 50 nM ^3H-2-deoxyglucose for another 10 min before washed in ice cold glucose free medium or PBS three times and lysed in 400 μL/well 0.2 M NaOH for 1 h at 60° C. The cell lysate was mixed with 4 mL scintillation buffer (Emulsifier Safe, Perkin Elmer) and the radioactivity was detected in a β-counter (Tri-Carb 4810TR, Perkin Elmer). The activity for each compound is compared to that of isoproterenol.

O[C@H](c1cccc(F)c1)C12CCC(COCc3ccc(Cl)cc3)(CC1)N2 [Example 1, (R)-(4-(((4-Chlorobenzyl)oxy)methyl)-7-azabicyclo[2.2.1]heptan-1-yl)(3-fluorophenyl)methanol] was tested, and the Emax at 10 µM (L6-myotubes [1]) was < 25% and the Emax at 10 µM (L6-myotubes [2]) was > 75%.
In the case of O[C@@H](c1cccc(F)c1)C12CCC(COCc3ccc(Cl)cc3)(CC1)N2 [Example 2, (S)-(4-(((4-Chlorobenzyl)oxy)methyl)-7-azabicyclo[2.2.1]heptan-1-yl)(3-fluorophenyl)methanol], the Emax at 10 µM (L6-myotubes [1]) is reported as < 25% and the Emax at 10 µM (L6-myotubes [2]) is reported as 50 to 75%.
For O[C@H](c1cccc(F)c1)C12CCC(COCc3ccc(F)cc3)(CC1)N2 [Example 3, (R)-(4-(((4-Fluorobenzyl)oxy)methyl)-7-azabicyclo[2.2.1]heptan-1-yl)(3-fluorophenyl)methanol], the Emax at 10 µM (L6-myotubes [1]) was 25 to 50% and the Emax at 10 µM (L6-myotubes [2]) was > 75%.
With O[C@@H](c1cccc(F)c1)C12CCC(COCc3ccc(F)cc3)(CC1)N2 [Example 4, (S)-(4-(((4-Fluorobenzyl)oxy)methyl)-7-azabicyclo[2.2.1]heptan-1-yl)(3-fluorophenyl)methanol] the Emax at 10 µM (L6-myotubes [1]) was < 25% and the Emax at 10 µM (L6-myotubes [2]) was 25 to 50%.
With O[C@H](c1cncc(F)c1)C12CCC(COCc3ccc(F)cc3)(CC1)N2 [Example 5, (R)-(4-(((4-Fluorobenzyl)oxy)methyl)-7-azabicyclo[2.2.1]heptan-1-yl)(5-fluoropyridin-3-yl)methanol] the Emax at 10 µM (L6-myotubes [1]) was 25 to 50% and the Emax at 10 µM (L6-myotubes [2]) was > 75%.
With O[C@@H](c1cncc(F)c1)C12CCC(COCc3ccc(F)cc3)(CC1)N2 [Example 6, (S)-(4-(((4-Fluorobenzyl)oxy)methyl)-7-azabicyclo[2.2.1]heptan-1-yl)(5-fluoropyridin-3-yl)methanol] the Emax at 10 µM (L6-myotubes [1]) was < 25% and the Emax at 10 µM (L6-myotubes [2]) was 50 to 75%.
In the case of O[C@H](c1cccc(F)c1)C12CCC(Cc3ccccc3)(CC1)N2 [Example 7, (R)-(4-Benzyl-7-azabicyclo[2.2.1]heptan-1-yl)(3-fluorophenyl)methanol], the Emax at 10 µM (L6-myotubes [1]) is reported as 25 to 50% and the Emax at 10 µM (L6-myotubes [2]) is reported as > 75%.
In the case of O[C@@H](c1cccc(F)c1)C12CCC(Cc3ccccc3)(CC1)N2 [Example 8, (S)-(4-Benzyl-7-azabicyclo[2.2.1]heptan-1-yl)(3-fluorophenyl)methanol], the Emax at 10 µM (L6-myotubes [1]) is reported as < 25% and the Emax at 10 µM (L6-myotubes [2]) is reported as 50 to 75%.
In the case of COc1ccc(CC23CCC([C@H](O)c4cccc(F)c4)(CC2)N3)cc1 [Example 9, (R)-(3-Fluorophenyl)(4-(4-methoxybenzyl)-7-azabicyclo[2.2.1]heptan-1-yl)methanol], the Emax at 10 µM (L6-myotubes [1]) is reported as < 25% and the Emax at 10 µM (L6-myotubes [2]) is reported as > 75%.
COc1ccc(CC23CCC([C@@H](O)c4cccc(F)c4)(CC2)N3)cc1 [Example 10, (S)-(3-Fluorophenyl)(4-(4-methoxybenzyl)-7-azabicyclo[2.2.1]heptan-1-yl)methanol] was tested, and the Emax at 10 µM (L6-myotubes [1]) was < 25% and the Emax at 10 µM (L6-myotubes [2]) was 50 to 75%.
With O[C@H](c1cccc(F)c1)C12CCC(Cc3ccc(F)cc3)(CC1)N2 [Example 11, (R)-(4-(4-Fluorobenzyl)-7-azabicyclo[2.2.1]heptan-1-yl)-(3-fluoro-phenyl)methanol] the Emax at 10 µM (L6-myotubes [1]) was < 25% and the Emax at 10 µM (L6-myotubes [2]) was > 75%.
In the case of O[C@@H](c1cccc(F)c1)C12CCC(Cc3ccc(F)cc3)(CC1)N2 [Example 12, (S)-(4-(4-Fluorobenzyl)-7-azabicyclo[2.2.1]heptan-1-yl)-(3-fluorophenyl)methanol], the Emax at 10 µM (L6-myotubes [1]) is reported as < 25% and the Emax at 10 µM (L6-myotubes [2]) is reported as 50 to 75%.
CO[C@H]1CC[C@H](CCC23CCC([C@H](O)c4cccc(F)c4)(CC2)N3)CC1 [Example 13, (R)-(3-Fluorophenyl)(4-(2-(trans-4-methoxycyclohexyl)ethyl)-7-azabicyclo[2.2.1]heptan-1-yl)methanol] was tested, and the Emax at 10 µM (L6-myotubes [1]) was 50 to 75% and the Emax at 10 µM (L6-myotubes [2]) was > 75%.
In the case of CO[C@H]1CC[C@H](CCC23CCC([C@@H](O)c4cccc(F)c4)(CC2)N3)CC1 [Example 14, (S)-(3-Fluorophenyl)(4-(2-((trans)-4-methoxycyclohexyl)ethyl)-7-aza-bicyclo[2.2.1]heptan-1-yl)methanol], the Emax at 10 µM (L6-myotubes [1]) is reported as < 25% and the Emax at 10 µM (L6-myotubes [2]) is reported as 50 to 75%.
For O[C@H](c1cccc(F)c1)C12CCC(COCc3ccc(OC(F)(F)F)cc3)(CC1)N2 [Example 15, (R)-(3-Fluorophenyl)(4-(((4-(trifluoromethoxy)benzyl)oxy)methyl)-7-azabicyclo[2.2.1]heptan-1-yl)methanol], the Emax at 10 µM (L6-myotubes [1]) was < 25% and the Emax at 10 µM (L6-myotubes [2]) was < 25%.
With O[C@@H](c1cccc(F)c1)C12CCC(COCc3ccc(OC(F)(F)F)cc3)(CC1)N2 [Example 16] the Emax at 10 µM (L6-myotubes [1]) was < 25% and the Emax at 10 µM (L6-myotubes [2]) was < 25%.
For O[C@H](c1cncc(F)c1)C12CCC(COCc3ccc(OC(F)(F)F)cc3)(CC1)N2 [Example 17, (R)-(5-Fluoropyridin-3-yl)(4-(((4-(trifluoromethoxy)benzyl)oxy)-methyl)-7-azabicyclo[2.2.1]heptan-1-yl)methanol], the Emax at 10 µM (L6-myotubes [1]) was < 25% and the Emax at 10 µM (L6-myotubes [2]) was 50 to 75%.
For O[C@@H](c1cncc(F)c1)C12CCC(COCc3ccc(OC(F)(F)F)cc3)(CC1)N2 [Example 18, (S)-(5-Fluoropyridin-3-yl)(4-(((4-(trifluoromethoxy)benzyl)oxy)methyl)-7-azabicyclo[2.2.1]heptan-1-yl)methanol], the Emax at 10 µM (L6-myotubes [1]) was < 25% and the Emax at 10 µM (L6-myotubes [2]) was < 25%.
For O[C@H](c1cccc(F)c1)C12CCC(Cc3ccc(OC(F)(F)F)cc3)(CC1)N2 [Example 19, (R)-(3-Fluorophenyl)(4-(4-(trifluoromethoxy)benzyl)-7-azabicyclo-[2.2.1]heptan-1-yl)methanol], the Emax at 10 µM (L6-myotubes [1]) was < 25% and the Emax at 10 µM (L6-myotubes [2]) was < 25%.
With O[C@@H](c1cccc(F)c1)C12CCC(Cc3ccc(OC(F)(F)F)cc3)(CC1)N2 [Example 20, (S)-(3-Fluorophenyl)(4-(4-(trifluoromethoxy)benzyl)-7-azabicyclo-[2.2.1]heptan-1-yl)methanol] the Emax at 10 µM (L6-myotubes [1]) was < 25% and the Emax at 10 µM (L6-myotubes [2]) was < 25%.
For CS(=O)(=O)N(Cc1ccccc1)c1ccc(CC23CCC([C@H](O)c4cccc(F)c4)(CC2)N3)cc1 [Example 21], the Emax at 10 µM (L6-myotubes [1]) was < 25% and the Emax at 10 µM (L6-myotubes [2]) was 25 to 50%.
For CS(=O)(=O)N(Cc1ccccc1)c1ccc(CC23CCC([C@@H](O)c4cccc(F)c4)(CC2)N3)cc1 [Example 22, N-Benzyl-N-(4-((4-((S)-(3-fluorophenyl)(hydroxy)methyl)-7-aza-bicyclo[2.2.1]heptan-1-yl)methyl)phenyl)methanesulfonamide], the Emax at 10 µM (L6-myotubes [1]) was < 25% and the Emax at 10 µM (L6-myotubes [2]) was 25 to 50%.
CS(=O)(=O)N(Cc1ccccc1)c1cccc(CC23CCC([C@H](O)c4cccc(F)c4)(CC2)N3)c1 [Example 23, N-Benzyl-N-(3-((4-((R)-(3-fluorophenyl)(hydroxy)methyl)-7-aza-bicyclo[2.2.1]heptan-1-yl)methyl)phenyl)methanesulfonamide] was tested, and the Emax at 10 µM (L6-myotubes [1]) was < 25% and the Emax at 10 µM (L6-myotubes [2]) was 50 to 75%.
For CS(=O)(=O)N(Cc1ccccc1)c1cccc(CC23CCC([C@@H](O)c4cccc(F)c4)(CC2)N3)c1 [Example 24, N-Benzyl-N-(3-((4-((S)-(3-fluorophenyl)(hydroxy)methyl)-7-aza-bicyclo[2.2.1]heptan-1-yl)methyl)phenyl)methanesulfonamide], the Emax at 10 µM (L6-myotubes [1]) was < 25% and the Emax at 10 µM (L6-myotubes [2]) was 50 to 75%.
For CS(=O)(=O)Nc1ccc(CC23CCC([C@H](O)c4cccc(F)c4)(CC2)N3)cc1 [Example 25, N-(4-((4-((R)-(3-Fluorophenyl)(hydroxy)methyl)-7-azabicyclo[2.2.1]-heptan-1-yl)methyl)phenyl)methanesulfonamide], the Emax at 10 µM (L6-myotubes [1]) was < 25% and the Emax at 10 µM (L6-myotubes [2]) was 50 to 75%.
With CS(=O)(=O)Nc1ccc(CC23CCC([C@@H](O)c4cccc(F)c4)(CC2)N3)cc1 [Example 26, N-(4-((4-((S)-(3-Fluorophenyl)(hydroxy)methyl)-7-azabicyclo[2.2.1]-heptan-1-yl)methyl)phenyl)methanesulfonamide] the Emax at 10 µM (L6-myotubes [1]) was < 25% and the Emax at 10 µM (L6-myotubes [2]) was 50 to 75%.
In the case of CS(=O)(=O)Nc1cccc(CC23CCC([C@H](O)c4cccc(F)c4)(CC2)N3)c1 [Example 27, N-(3-((4-((R)-(3-Fluorophenyl)(hydroxy)methyl)-7-azabicyclo-[2.2.1]heptan-1-yl)methyl)phenyl)methanesulfonamide], the Emax at 10 µM (L6-myotubes [1]) is reported as < 25% and the Emax at 10 µM (L6-myotubes [2]) is reported as 50 to 75%.
With CS(=O)(=O)Nc1cccc(CC23CCC([C@@H](O)c4cccc(F)c4)(CC2)N3)c1 [Example 28, N-(3-((4-((S)-(3-Fluorophenyl)(hydroxy)methyl)-7-azabicyclo[2.2.1]-heptan-1-yl)methyl)phenyl)methanesulfonamide] the Emax at 10 µM (L6-myotubes [1]) was < 25% and the Emax at 10 µM (L6-myotubes [2]) was 50 to 75%.
